# Measured values taken from US20110294766A1, “16 Alpha, 17 Alpha-Acetal Glucocorticosteroidal Derivatives and their Use” (AstraZeneca AB, priority 2008, published 2011).
# Biological target: T1, recombinant human GR (Homo sapiens, UniProt P04150)
# T1 construct: purchased Panvera/Invitrogen P2812 (kit P2893)
# T1 sequence (P04150 1-777): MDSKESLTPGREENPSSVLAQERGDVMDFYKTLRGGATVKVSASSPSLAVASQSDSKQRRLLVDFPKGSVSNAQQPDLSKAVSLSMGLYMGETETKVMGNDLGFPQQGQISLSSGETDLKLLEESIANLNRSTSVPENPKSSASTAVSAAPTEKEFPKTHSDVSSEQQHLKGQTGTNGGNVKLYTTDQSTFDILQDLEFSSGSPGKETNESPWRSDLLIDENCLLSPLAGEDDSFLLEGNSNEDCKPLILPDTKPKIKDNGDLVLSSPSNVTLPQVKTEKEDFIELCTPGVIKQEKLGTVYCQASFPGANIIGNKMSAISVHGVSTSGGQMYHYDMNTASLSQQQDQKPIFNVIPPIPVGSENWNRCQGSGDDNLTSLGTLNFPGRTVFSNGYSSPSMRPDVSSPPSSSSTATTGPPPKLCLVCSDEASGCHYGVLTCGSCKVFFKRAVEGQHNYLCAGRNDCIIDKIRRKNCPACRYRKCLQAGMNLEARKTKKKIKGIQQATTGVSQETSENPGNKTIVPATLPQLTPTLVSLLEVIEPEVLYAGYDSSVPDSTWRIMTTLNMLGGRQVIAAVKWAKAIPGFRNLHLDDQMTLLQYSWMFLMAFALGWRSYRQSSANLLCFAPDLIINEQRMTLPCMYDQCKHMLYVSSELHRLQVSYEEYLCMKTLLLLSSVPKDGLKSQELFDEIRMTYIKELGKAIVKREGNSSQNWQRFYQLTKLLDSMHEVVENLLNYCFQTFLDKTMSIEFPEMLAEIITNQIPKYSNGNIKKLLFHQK
# Test: Human Glucocorticoid Receptor (GR) Assay (fluorescence polarization, Panvera/Invitrogen kit)
# Settings: GS Red tracer, 2 hours at room temperature, 100% control 10 μM Dexamethasone, read-out: Inhibition of GR binding, IC50
# Outline: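 Fluorescence polarization competition binding of compounds against Fluoromone GS Red tracer on recombinant human GR, in buffer of potassium phosphate, sodium molybdate, EDTA, DMSO with stabilizing peptide and DTT. Incubated 2 h at room temperature in the dark; read at ex 530/em 590 nm. Controls: DMSO (0%), 10 μM dexamethasone (100%).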
row,SMILES,IC50 [pM]
1,"C[C@]12C=CC(=O)C=C1CC[C@@H]1[C@@H]2[C@@H](O)C[C@@]2(C)[C@H]1C[C@H]1OC(c3ccccc3F)O[C@]12C(=O)SCC#N (stereo partly drawn) [Example 42, S-(Cyanomethyl)(4aR,4bS,5S,6aS,6bS,9aR,10aS,10bS)-8-(2-fluorophenyl)-5-hydroxy-4a,6a-dimethyl-2-oxo-2,4a,4b,5,6,6a,9a,10,10a,10b,11,12-dodecahydro-6bH-naphtho[2′,1′:4,5]indeno[1,2-d][1,3]dioxole-6b-carbothioate]",1500
2,"C[C@]12C=CC(=O)C=C1CC[C@@H]1[C@@H]2[C@@H](O)C[C@@]2(C)[C@H]1C[C@H]1OC(c3ccccc3F)O[C@]12C(=O)SCF (stereo partly drawn) [Example 43, S-(Fluoromethyl)(4aR,4bS,5S,6aS,6bS,9aR,10aS,10bS)-8-(2-fluorophenyl)-5-hydroxy-4a,6a-dimethyl-2-oxo-2,4a,4b,5,6,6a,9a,10,10a,10,11,12-dodecahydro-6bH-naphtho[2′,1′:4,5]indeno[1,2-d][1,3]dioxole-6b-carbothioate]",810
3,"CSC(=O)[C@@]12OC(c3ccccc3F)O[C@@H]1C[C@H]1[C@@H]3CCC4=CC(=O)C=C[C@]4(C)[C@H]3[C@@H](O)C[C@@]12C (stereo partly drawn) [Example 44, S-Methyl (4aR,4bS,5S,6aS,6bS,9aR,10aS,10bS)-8-(2-fluorophenyl)-5-hydroxy-4a,6a-dimethyl-2-oxo-2,4a,4b,5,6,6a,9a,10,10a,10b,11,12-dodecahydro-6bH-naphtho[2′,1′:4,5]indeno[1,2-d][1,3]dioxole-6b-carbothioate]",620
